# Values joined by “and” are separate entries in the source; they are usually repeats but may differ in a detail not shown here. Identical values can stand only once. No end group written: not given here.
# Columns and labels:
# α-glucosidase = conditions: peptide from ovalbumin; ref Yu et al. [2012]; read-out: α-glucosidase inhibitory activity IC50; cited from earlier work
# [1] = Fe(II) ion chelation (ferrozine); conditions: synthetic peptides; mean n = 3
# Description: Chelation of iron ions by hydrolysates was estimated by the method of Xu et al. ([2007]) with modifications. A 250 μL sample was mixed with 1,250 μL H2O and 110 μL 1 mM FeCl2. After 2 min, 1 mL of 500 μM ferrozine (Sigma 160601) aqueous solution was added and the mixture was allowed to react for 10 min. The absorbance of ferrous iron–ferrozine complex was measured spectrophotometrically at λ = 562 nm. A known concentration of FeCl2 (0–20 μg) was used to generate a standard curve and the ability to chelate iron ions was expressed as μg Fe^2+/mg protein.
# [2] = molecular target: α-Glucosidase from Saccharomyces cerevisiae (Saccharomyces cerevisiae, UniProt P53341); assay: α-Glucosidase inhibitory activity (pNPG substrate); format: biochemical; conditions: synthetic peptides, mean n = 3; for IC50: read-out: Enzyme inhibitory activity (IC50) α-Glucosidase (converted)
# Description: The α-glucosidase inhibition assay was performed according to the method of Yu et al. ([2011]). α-Glucosidase from Saccharomyces cerevisiae (Sigma G0660) hydrolyzes the substrate—p-nitrophenyl glucopyranoside (pNPG) (Sigma N1377) and the thus produced p-nitrophenol can be measured spectrophotometrically. 5 µL of the α-glucosidase solution (10 U/mL, in 0.1 M potassium phosphate buffer, pH 6.8) was premixed with 10 µL of the sample solution at different concentrations (in 10 % DMSO) in 620 µL of 0.1 M potassium phosphate buffer (pH 6.8). Following incubation at 37.5 °C for 20 min, 10 µL of p-nitrophenyl glucopyranoside (pNPG 10 mM) as substrate was added to the mixture to start the reaction and was then incubated at 37.5 °C for 30 min, followed by addition of 650 µL of 1 M Na2CO3 solution to terminate the reaction. The amount of released product (p-nitrophenol) was measured at λ = 410 nm. The IC50 value was defined as the concentration of inhibitor required to inhibit 50 % of α-glucosidase activity under assay conditions.
# [3] = Antioxidant activity as ability to scavenge DPPH free radicals; conditions: synthetic peptides; mean n = 3
# Description: The antioxidant activity of the obtained hydrolysates was assessed on the basis of the radical scavenging effect of the stable 1,1-diphenyl-2-picrylhydrazyl [DPPH (Sigma, D21140-0)]—free radical activity according to Yen and Chen ([1995]), with minor modifications. The tested samples were dissolved in water to a final volume of 1 mL and mixed with 1 mL of ethanol (98 %). The reaction was started by adding 0.5 mL of […] DPPH in ethanol. The mixtures were left for 30 min at room temperature and the absorbance of the resulting solutions was measured at 517 nm. For calibration, aqueous solutions of known Trolox concentrations ranging from 2 to 20 μg (able to scavenge 500 μL of 0.3 mM DPPH radical solution) were used. Radical scavenging activity of the peptides was expressed as µM troloxeq/mg protein.
# [4] = FRAP method (ferric reducing antioxidant power); conditions: synthetic peptides; mean n = 3
# Description: The ferric reducing antioxidant power (FRAP) method was used to determine the antioxidative capacity of hydrolysates according to Benzie and Strain ([1996]). 3 mL of FRAP working solution [300 mM acetate buffer pH 3.6; 10 mM 2,4,6,tripyridyl-s-triazine (TPTZ) (Fluka, 93285) and 20 mM FeCl3 × 6 H2O (10:1:1 v/v)] was mixed with 1 mL of the sample. After 10 min of reaction, the absorbance was measured at λ = 593 nm. An aqueous solution of known Fe(II) concentration was used for calibration (in the range from 100 to 1,000 μg). Results were expressed as μg Fe^2+/mg protein.
# [5] = molecular target: T1, DPP-4 from porcine kidney (Sus scrofa, UniProt P22411); assay: Dipeptidyl peptidase-4 (DPP-4) inhibitory activity (Gly-Pro-p-nitroanilide); format: biochemical; conditions: synthetic peptides, mean n = 3; for IC50: read-out: Enzyme inhibitory activity (IC50) DPP-4 (converted)
# T1 construct: DPP-4 from porcine kidney was purchased from Sigma (D7052); purchased Sigma D7052; host or cells: porcine kidney tissue
# Description: DPP-4 inhibitory activity (IC50) was determined using a modified method of Lacroix and Li-Chan (2013). DPP-4 from porcine kidney was purchased from Sigma (D7052). The lyophilized peptide fractions were re-suspended in 0.1 M Tris–HCl buffer, pH 8.0. The test sample (25 μL) was preincubated with an equal volume of the substrate Gly-Pro-p-nitroanilide (1.6 mM) at 37 °C for 10 min. Afterwards, 50 μL of DPP-4 (0.01 U/mL, in 0.1 M Tris–HCl buffer, pH 8.0) was added and the mixture was incubated at 37 °C for 60 min. The reaction was stopped by the addition of 100 μL of 1 M sodium acetate buffer, pH 4.0. The released p-nitroanilide as a hydrolysis product was measured at λ = 405 nm.
# The IC50 value was defined as the concentration of inhibitor required to inhibit 50 % of DPP-4 activity under assay conditions.
# [6] = molecular target: T2, ACE (EC 3.4.15.1; from rabbit lung) (Oryctolagus cuniculus, UniProt P12822); assay: ACE inhibitory activity (HHL substrate, spectrophotometric); format: biochemical; conditions: synthetic peptides; mean n = 3; read-out: Enzyme inhibitory activity (IC50) ACE (converted)
# T2 construct: The ACE (EC 3.4.15.1; from rabbit lung, Sigma, A6778); purchased Sigma A6778; host or cells: rabbit lung tissue
# T2 sequence (P12822 34-1310): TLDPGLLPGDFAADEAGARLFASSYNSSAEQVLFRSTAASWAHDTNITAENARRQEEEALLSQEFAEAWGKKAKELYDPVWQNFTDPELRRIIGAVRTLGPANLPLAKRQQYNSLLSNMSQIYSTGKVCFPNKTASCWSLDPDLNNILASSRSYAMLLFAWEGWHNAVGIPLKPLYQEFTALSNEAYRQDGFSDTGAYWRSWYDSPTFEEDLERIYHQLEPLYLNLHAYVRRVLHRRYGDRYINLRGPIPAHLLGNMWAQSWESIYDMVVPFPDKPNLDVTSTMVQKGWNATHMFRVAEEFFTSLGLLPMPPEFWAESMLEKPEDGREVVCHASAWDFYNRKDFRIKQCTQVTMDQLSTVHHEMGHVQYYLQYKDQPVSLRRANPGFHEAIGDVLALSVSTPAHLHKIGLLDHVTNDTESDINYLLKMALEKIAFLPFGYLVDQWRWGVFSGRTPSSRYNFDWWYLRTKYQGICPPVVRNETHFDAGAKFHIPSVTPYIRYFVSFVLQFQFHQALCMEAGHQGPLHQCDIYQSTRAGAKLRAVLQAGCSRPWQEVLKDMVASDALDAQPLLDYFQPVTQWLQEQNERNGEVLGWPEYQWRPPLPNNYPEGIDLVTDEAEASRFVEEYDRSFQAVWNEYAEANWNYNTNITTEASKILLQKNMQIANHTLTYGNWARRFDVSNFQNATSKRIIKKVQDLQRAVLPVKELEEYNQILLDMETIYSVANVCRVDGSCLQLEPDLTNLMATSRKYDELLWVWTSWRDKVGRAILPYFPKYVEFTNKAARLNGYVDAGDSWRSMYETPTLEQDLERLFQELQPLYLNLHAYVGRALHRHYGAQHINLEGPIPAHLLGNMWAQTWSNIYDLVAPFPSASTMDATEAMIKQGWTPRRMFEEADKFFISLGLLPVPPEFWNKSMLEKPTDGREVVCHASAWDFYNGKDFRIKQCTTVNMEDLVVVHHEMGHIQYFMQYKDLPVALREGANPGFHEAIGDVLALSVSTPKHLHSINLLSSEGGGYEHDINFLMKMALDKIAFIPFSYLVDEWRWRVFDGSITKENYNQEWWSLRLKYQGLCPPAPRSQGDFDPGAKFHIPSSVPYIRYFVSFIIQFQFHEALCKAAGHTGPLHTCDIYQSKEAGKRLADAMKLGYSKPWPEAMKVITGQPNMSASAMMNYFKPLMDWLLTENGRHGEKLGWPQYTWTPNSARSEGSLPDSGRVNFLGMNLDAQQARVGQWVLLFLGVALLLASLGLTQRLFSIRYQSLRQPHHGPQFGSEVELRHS
# Description: The ACE (EC 3.4.15.1; from rabbit lung, Sigma, A6778) inhibitory activity of hydrolysate and peptide fractions was measured spectrophotometrically according to Miguel et al. ([2004]). A hydrolysate solution (40 µL) mixed with a Hippuryl-His-Leu (HHL) (Sigma H4884) solution (5 mM in 100 mM potassium phosphate containing 300 mM sodium chloride, pH 8.3) as substrate was preincubated at 37 °C for 5 min, and the reaction was initiated by adding 20 µL (2 mU) of ACE solution and incubating for 30 min at the same temperature. The enzymatic reaction was halted by the addition of 150 µL of 1 M HCl. The liberated hippuric acid was extracted using 1 mL of ethyl acetate and vigorous shaking, after which 750 µL of the upper layer was transferred into a test tube and evaporated in a vacuum. The hippuric acid left in the tubes was re-dissolved in 800 µL of distilled water and the absorbance was measured at λ = 228 nm. All samples were tested in three replications. The inhibition activity was calculated using the following equation:
# Inhibition activity (%) = [(A − B)/A] × 100 %
# where A is the reaction blank, of which the mixture contained the same volume of the buffer solution instead of the ACE inhibitor sample; B is the reaction in the presence of both ACE and its inhibitor. The IC50 value was estimated from a dose–response curve of an inhibitor versus the ACE activity.
# T1 sequence (P22411 whole entry): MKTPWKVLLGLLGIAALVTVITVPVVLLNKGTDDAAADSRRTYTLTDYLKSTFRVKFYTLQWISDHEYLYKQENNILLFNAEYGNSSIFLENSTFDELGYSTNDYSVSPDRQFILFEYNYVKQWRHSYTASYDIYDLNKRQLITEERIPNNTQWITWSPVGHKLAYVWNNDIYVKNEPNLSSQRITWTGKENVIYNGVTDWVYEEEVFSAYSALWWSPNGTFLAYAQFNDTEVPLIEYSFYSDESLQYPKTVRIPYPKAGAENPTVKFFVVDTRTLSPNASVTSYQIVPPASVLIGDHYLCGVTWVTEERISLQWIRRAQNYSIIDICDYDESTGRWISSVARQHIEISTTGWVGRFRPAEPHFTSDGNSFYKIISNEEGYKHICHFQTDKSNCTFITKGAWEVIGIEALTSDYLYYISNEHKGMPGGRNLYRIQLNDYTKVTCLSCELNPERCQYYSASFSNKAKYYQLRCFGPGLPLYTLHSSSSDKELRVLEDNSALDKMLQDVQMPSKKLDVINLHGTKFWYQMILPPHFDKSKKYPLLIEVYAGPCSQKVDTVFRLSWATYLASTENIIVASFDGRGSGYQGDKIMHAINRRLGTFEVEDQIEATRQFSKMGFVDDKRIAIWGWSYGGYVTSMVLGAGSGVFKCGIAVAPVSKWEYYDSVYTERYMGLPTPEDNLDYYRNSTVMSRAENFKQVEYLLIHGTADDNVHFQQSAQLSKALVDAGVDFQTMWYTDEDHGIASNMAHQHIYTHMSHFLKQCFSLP
# α-Glucosidase from Saccharomyces cerevisiae, sequence (P53341 whole entry): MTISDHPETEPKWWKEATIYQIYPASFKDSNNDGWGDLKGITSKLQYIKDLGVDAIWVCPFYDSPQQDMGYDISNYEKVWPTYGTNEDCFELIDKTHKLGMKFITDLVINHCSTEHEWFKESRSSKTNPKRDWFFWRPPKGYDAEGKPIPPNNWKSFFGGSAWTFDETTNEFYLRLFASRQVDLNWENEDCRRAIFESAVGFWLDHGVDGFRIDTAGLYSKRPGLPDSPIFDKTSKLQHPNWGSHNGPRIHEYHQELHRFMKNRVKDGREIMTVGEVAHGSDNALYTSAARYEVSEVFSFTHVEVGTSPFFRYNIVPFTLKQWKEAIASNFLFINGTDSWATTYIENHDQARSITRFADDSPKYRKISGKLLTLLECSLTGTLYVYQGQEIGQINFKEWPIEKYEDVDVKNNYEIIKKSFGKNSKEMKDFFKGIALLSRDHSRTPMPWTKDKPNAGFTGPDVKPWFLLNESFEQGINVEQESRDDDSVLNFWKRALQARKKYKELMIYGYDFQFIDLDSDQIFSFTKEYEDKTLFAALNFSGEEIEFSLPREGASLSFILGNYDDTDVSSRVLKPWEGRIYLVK
substance,measurement,setting,value
KLPGF,IC50,α-glucosidase,59.5 µM
YIEAVNKVSPRAGQF-OH [YIEAVNKVSPRAGQF],Antioxidant activity CHEL.,[1],25.2b µg Fe^2+/mg
same,Enzyme inhibitory activity (IC50) α-Glucosidase,[2],no impact
same,Antioxidant activity DPPH,[3],2.2 µM Troloxeq/mg and 2.2c µM Troloxeq/mg
same,Antioxidant activity FRAP,[4],61.0 µg Fe^2+/mg and 61.0b µg Fe^2+/mg
same,Enzyme inhibitory activity (IC50) DPP-4,[5],no impact
same,IC50,[6],5.6 µM
YINQMPQKSRE [YINQMPQKSRE],IC50,[2],1220 µM
same,IC50,[5],160 µM
same,IC50,[6],7.25 µM
VTGRFAGHPAAQ [VTGRFAGHPAAQ],IC50,[2],302 µM
same,IC50,[5],1160 µM
same,IC50,[6],22.5 µM
YINQMPQKSREA [YINQMPQKSREA],IC50,[2],310 µM
same,IC50,[5],243 µM
same,IC50,[6],8.6 µM
